How the values were obtained:
Assay type in all cases: functional
[1] = Antiproliferative activity against human HOP92 cells assessed as cell growth at 10^-5 M after 48 hrs by sulforhodamine B assay; conditions: HOP-92, 48 h, read-out: Activity
[2] = system: MDA-MB-231; assay: Antiproliferative activity against human MDA-MB-231 cells assessed as cell growth at 10^-5 M after 48 hrs by sulforhodamine B assay; conditions: MDA-MB-231, 48 h, read-out: Activity
[3] = Antiproliferative activity against human OVCAR3 cells assessed as cell growth at 10^-5 M after 48 hrs by sulforhodamine B assay; conditions: OVCAR-3, 48 h, read-out: Activity
[4] = Antiproliferative activity against human TK10 cells assessed as cell growth at 10^-5 M after 48 hrs by sulforhodamine B assay; conditions: TK-10, 48 h, read-out: Activity
[5] = Antiproliferative activity against human RXF393 cells assessed as cell growth at 10^-5 M after 48 hrs by sulforhodamine B assay; conditions: RXF 393, 48 h, read-out: Activity
[6] = system: MDA-MB-435; assay: Antiproliferative activity against human MDA-MB-435 cells assessed as cell growth at 10^-5 M after 48 hrs by sulforhodamine B assay; conditions: MDA-MB-435, 48 h, read-out: Activity
[7] = system: NCI-H460; assay: Antiproliferative activity against human NCI-H460 cells assessed as cell growth at 10^-5 M after 48 hrs by sulforhodamine B assay; conditions: NCI-H460, 48 h, read-out: Activity
[8] = system: HT-29; assay: Antiproliferative activity against human HT-29 cells assessed as cell growth at 10^-5 M after 48 hrs by sulforhodamine B assay; conditions: HT-29, 48 h, read-out: Activity
[9] = system: SR; assay: Antiproliferative activity against human SR cells assessed as cell growth at 10^-5 M after 48 hrs by sulforhodamine B assay; conditions: read-out: Activity
[10] = system: A498; assay: Antiproliferative activity against human A498 cells assessed as cell growth at 10^-5 M after 48 hrs by sulforhodamine B assay; conditions: A498, 48 h, read-out: Activity
[11] = system: A549; assay: Antiproliferative activity against human A549/ATCC cells assessed as cell growth at 10^-5 M after 48 hrs by sulforhodamine B assay; conditions: A549, 48 h, read-out: Activity
[12] = Antiproliferative activity against human OVCAR5 cells assessed as cell growth at 10^-5 M after 48 hrs by sulforhodamine B assay; conditions: OVCAR-5, 48 h, read-out: Activity
[13] = system: SK-MEL-28; assay: Antiproliferative activity against human SK-MEL-28 cells assessed as cell growth at 10^-5 M after 48 hrs by sulforhodamine B assay; conditions: SK-MEL-28, 48 h, read-out: Activity
[14] = Antiproliferative activity against human OVCAR8 cells assessed as cell growth at 10^-5 M after 48 hrs by sulforhodamine B assay; conditions: OVCAR-8, 48 h, read-out: Activity
[15] = Antiproliferative activity against human IGROV1 cells assessed as cell growth at 10^-5 M after 48 hrs by sulforhodamine B assay; conditions: IGROV-1, 48 h, read-out: Activity
[16] = system: T47D; assay: Antiproliferative activity against human T47D cells assessed as cell growth at 10^-5 M after 48 hrs by sulforhodamine B assay; conditions: read-out: Activity
[17] = Antiproliferative activity against human LOXIMVI cells assessed as cell growth at 10^-5 M after 48 hrs by sulforhodamine B assay; conditions: LOX IMVI, read-out: Activity
[18] = system: MCF7; assay: Antiproliferative activity against human MCF7 cells assessed as cell growth at 10^-5 M after 48 hrs by sulforhodamine B assay; conditions: MCF7, 48 h, read-out: Activity
[19] = Antiproliferative activity against human HCC2998 cells assessed as cell growth at 10^-5 M after 48 hrs by sulforhodamine B assay; conditions: HCC 2998, 48 h, read-out: Activity
[20] = system: SK-MEL-5; assay: Antiproliferative activity against human SK-MEL-5 cells assessed as cell growth at 10^-5 M after 48 hrs by sulforhodamine B assay; conditions: SK-MEL-5, 48 h, read-out: Activity
[21] = system: 786-0; assay: Antiproliferative activity against human 786-0 cells assessed as cell growth at 10^-5 M after 48 hrs by sulforhodamine B assay; conditions: 786-0, 48 h, read-out: Activity
[22] = system: KM12; assay: Antiproliferative activity against human KM12 cells assessed as cell growth at 10^-5 M after 48 hrs by sulforhodamine B assay; conditions: KM12, 48 h, read-out: Activity
[23] = Antiproliferative activity against human Caki1 cells assessed as cell growth at 10^-5 M after 48 hrs by sulforhodamine B assay; conditions: CAKI-1, 48 h, read-out: Activity
[24] = Antiproliferative activity against human HL-60(TB) cells assessed as cell growth at 10^-5 M after 48 hrs by sulforhodamine B assay; conditions: HL-60, 48 h, read-out: Activity
[25] = Antiproliferative activity against human UACC62 cells assessed as cell growth at 10^-5 M after 48 hrs by sulforhodamine B assay; conditions: UACC-62, 48 h, read-out: Activity
[26] = system: CCRF-CEM; assay: Antiproliferative activity against human CCRF-CEM cells assessed as cell growth at 10^-5 M after 48 hrs by sulforhodamine B assay; conditions: read-out: Activity
[27] = Antiproliferative activity against human UACC257 cells assessed as cell growth at 10^-5 M after 48 hrs by sulforhodamine B assay; conditions: UACC-257, 48 h, read-out: Activity
[28] = system: NCI-H226; assay: Antiproliferative activity against human NCI-H226 cells assessed as growth inhibition after 48 hrs by sulforhodamine B assay; conditions: NCI-H226, 48 h
[29] = Antiproliferative activity against human NCI-ADR-RES cells assessed as growth inhibition after 48 hrs by sulforhodamine B assay
[30] = Antiproliferative activity against human SNB19 cells assessed as growth inhibition after 48 hrs by sulforhodamine B assay; conditions: SNB-19, 48 h

Compound | growth at 10 µM [2] [%] | growth at 10 µM [3] [%] | growth at 10 µM [4] [%] | growth at 10 µM [5] [%] | growth at 10 µM [6] [%] | growth at 10 µM [7] [%] | growth at 10 µM [8] [%] | growth at 10 µM [9] [%] | growth at 10 µM [10] [%] | growth at 10 µM [11] [%] | growth at 10 µM [12] [%] | growth at 10 µM [13] [%] | growth at 10 µM [14] [%] | growth at 10 µM [15] [%] | growth at 10 µM [16] [%] | growth at 10 µM [17] [%] | growth at 10 µM [18] [%] | growth at 10 µM [19] [%] | growth at 10 µM [20] [%] | growth at 10 µM [22] [%] | further results
CNC(=O)c1cc(Oc2ccc3nc(NC(=O)Nc4ccc(F)cc4F)sc3c2)ccn1 | 47.6 | 74.7 | 93.5 | 42.3 | 62.5 | 63 | 58.8 | 80.4 | 10.9 | 44.8 | 95.2 | 52.1 | 45.1 | 84.2 | 56.5 | 52.1 | 66.8 | 88.1 | 39 | 72.6 | growth at 10 µM [1]: -13.7%; growth at 10 µM [21]: 64%; growth at 10 µM [23]: 88.4%; growth at 10 µM [24]: 98.3%; growth at 10 µM [25]: 65.1%; growth at 10 µM [26]: 89.7%; growth at 10 µM [27]: 74.3%
CNC(=O)c1cc(Oc2ccc(NC(=O)Nc3ccc(Cl)c(C(F)(F)F)c3)cc2)ccn1 [SORAFENIB] |  |  |  |  |  |  |  |  |  |  |  |  |  |  |  |  |  |  |  |  | GI50 [28]: 2 µM; TGI [28]: 7.94 µM; CC50 ([28]; read-out: LC50 (the source's name)): 31.6 µM; GI50 [29]: 2.51 µM; TGI [29]: 7.94 µM; GI50 [30]: 3.16 µM; TGI [30]: 15.8 µM
CNC(=O)c1cc(Oc2ccc3nc(NC(=O)c4cccc(F)n4)sc3c2)ccn1 | 86 | 95.5 | 133 | 101 | 100 | 89.5 | 96 | 55.9 | 72.6 | 75.2 | 128 | 105 | 85 | 101 | 84.8 | 84.8 | 86.3 | 114 | 71.8 | 87.5 | growth at 10 µM [1]: 81.4%; growth at 10 µM [21]: 86%; growth at 10 µM [23]: 83%; growth at 10 µM [24]: 78.2%; growth at 10 µM [25]: 78%; growth at 10 µM [26]: 64.7%; growth at 10 µM [27]: 80.3%
CNC(=O)c1cc(Oc2ccc3nc(NC(=O)c4ccc(Cl)c(C(F)(F)F)c4)sc3c2)ccn1 | 75.3 | 66.4 | 92.8 | 47.9 | 80.4 | 56.4 | 68.1 | 37.6 | 69 | 71.7 | 93.3 | 83 | 57.2 | 85.8 | 64.8 | 71.2 | 64.1 | 74.8 | 70.9 | 67.7 | growth at 10 µM [23]: 95.2%; growth at 10 µM [24]: 89.4%; growth at 10 µM [25]: 81.1%; growth at 10 µM [26]: 68.4%; growth at 10 µM [27]: 75.3%

From ChEMBL document CHEMBL3797052 (Eur J Med Chem, 2016)
